# Test results from paper PMC9506485, “Synthesis and Structure–Activity Relationships for the Anti-Mycobacterial Activity of 3-Phenyl-N-(Pyridin-2-ylmethyl)Pyrazolo[1,5-a]Pyrimidin-7-Amines” (Pharmaceuticals, 2022).
# Tests used:
# M.tb bacteria = test system: M.tb bacteria; set-up: method as in doi:10.1039/C5MD00589B, PMID 35140452; conditions: cited from earlier work
# [1] = test system: M. smegmatis inverted membrane vesicle; set-up: method as in doi:10.1039/C5MD00589B, PMID 35140452; conditions: M. smegmatis inverted membrane vesicle assay; cited from earlier work
# tuberculosis = test system: tuberculosis; set-up: method as in doi:10.1039/C5MD00589B, PMID 35140452; conditions: cited from earlier work
# [2] = test system: Mycobacterium tuberculosis (strain H37Rv); experiment: LORA minimum inhibitory concentration assay (low-oxygen/non-replicating); conditions: M.tb H37Rv, 90% inhibition of growth
# [3] = test system: Mycobacterium tuberculosis (strain H37Rv); experiment: MABA minimum inhibitory concentration assay (aerobic/replicating); format: cell-based; conditions: M.tb H37Rv; for MIC90: Mycobacterium tuberculosis, aerobic/replicating, 90% inhibition of growth
# [4] = Microsomal stability, mouse liver microsomes; format: in vitro ADME; conditions: for CLint scaled at 1 μM / half-life at 1 μM: CD-1, mouse, microsomes, pH 7.4; for microsomal CLint at 1 μM: CD-1, pH 7.4, mouse liver microsomes, read-out: MLM Clint(mic)
# In short: (§1)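 Compounds at 1 μM incubated at 37 °C with human or CD-1 mouse liver microsomes (0.5 mg/mL protein) plus NADPH regenerating system in 100 mM phosphate buffer, pH 7.4. Samples taken at 0–60 min, quenched in cold acetonitrile and analysed by LC-MS/MS.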
# [5] = test system: VERO green monkey kidney cells; experiment: VERO mammalian cell toxicity assay; format: cell-based; conditions: Chlorocebus sabaeus; inhibition of growth of VERO green monkey kidney epithelial cells
# hERG = hERG (Homo sapiens, UniProt Q12809); experiment: hERG channel blockade, manual patch clamp; format: cell-based; conditions: cloned hERG potassium channels, room temperature; for inhibition at 0.3 µM: read-out: hERG % inhib. at 0.3 µM; for inhibition at 1 µM: read-out: hERG % inhib. at 1.0 µM
# hERG, sequence (Q12809 whole entry): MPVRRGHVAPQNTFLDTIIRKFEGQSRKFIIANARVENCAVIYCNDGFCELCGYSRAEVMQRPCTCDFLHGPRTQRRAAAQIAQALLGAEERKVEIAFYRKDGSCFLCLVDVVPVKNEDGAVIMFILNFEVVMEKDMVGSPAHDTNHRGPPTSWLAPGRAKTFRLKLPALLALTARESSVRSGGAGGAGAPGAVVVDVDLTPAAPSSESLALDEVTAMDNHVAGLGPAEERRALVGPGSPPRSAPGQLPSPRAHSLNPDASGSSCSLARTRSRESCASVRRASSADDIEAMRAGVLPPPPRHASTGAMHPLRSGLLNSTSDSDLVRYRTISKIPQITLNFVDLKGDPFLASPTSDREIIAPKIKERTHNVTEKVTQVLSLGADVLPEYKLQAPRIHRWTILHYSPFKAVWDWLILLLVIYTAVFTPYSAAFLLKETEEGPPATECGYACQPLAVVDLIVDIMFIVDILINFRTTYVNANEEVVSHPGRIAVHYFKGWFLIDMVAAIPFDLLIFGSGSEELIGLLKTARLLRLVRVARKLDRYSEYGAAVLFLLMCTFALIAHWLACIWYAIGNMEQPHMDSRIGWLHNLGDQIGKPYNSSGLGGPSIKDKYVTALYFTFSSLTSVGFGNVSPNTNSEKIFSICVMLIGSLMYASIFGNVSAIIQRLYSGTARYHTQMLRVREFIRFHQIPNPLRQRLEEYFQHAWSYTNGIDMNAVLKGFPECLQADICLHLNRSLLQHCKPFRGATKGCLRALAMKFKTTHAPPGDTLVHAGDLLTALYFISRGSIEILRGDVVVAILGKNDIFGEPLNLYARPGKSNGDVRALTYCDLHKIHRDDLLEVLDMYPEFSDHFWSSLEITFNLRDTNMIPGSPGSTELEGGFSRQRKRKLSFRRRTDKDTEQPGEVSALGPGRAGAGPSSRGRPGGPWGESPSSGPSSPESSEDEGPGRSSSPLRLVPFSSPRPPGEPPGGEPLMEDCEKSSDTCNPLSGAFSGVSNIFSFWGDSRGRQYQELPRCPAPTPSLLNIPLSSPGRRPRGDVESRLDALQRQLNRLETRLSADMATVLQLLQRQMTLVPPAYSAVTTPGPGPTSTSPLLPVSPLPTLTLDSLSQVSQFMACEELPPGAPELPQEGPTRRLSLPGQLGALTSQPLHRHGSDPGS
# Description: Selected compounds were evaluated for hERG channel blockade (Table 4) by WuXi AppTec (Shanghai) Co., Ltd. This was carried out using cloned hERG potassium channels according to their standard manual patch clamp method. Two concentrations (0.3 and 1.0 µM) were tested (at room temperature), and at least three replicates were obtained for each. Amitryptyline was used as a standard.
# [6] = Microsomal stability, human liver microsomes; format: in vitro ADME; conditions: pH 7.4; for microsomal CLint at 1 μM: human liver microsomes, read-out: HLM Clint(mic)
# In short: as §1
SMILES,inhibition of M.tb bacteria in culture (M.tb bacteria),depletion of ATP [1],activity in vivo in an acute mouse model of tuberculosis (tuberculosis),melting point [°C],MIC90 LORA [2] [µg/mL],MIC90 [3] [µg/mL],CLint scaled at 1 μM [4] [mL/min/kg],half-life at 1 μM [4] [h],microsomal CLint at 1 μM [4] [µL/min/mg],IC50 [5] [µg/mL],inhibition at 0.3 µM (hERG) [%],inhibition at 1 µM (hERG) [%],"CLint scaled at 1 μM ([6]; human, microsomes) [mL/min/kg]","half-life at 1 μM ([6]; human, microsomes) [h]",microsomal CLint at 1 μM [6] [µL/min/mg],anti-mycobacterial activity in words ([3]; MABA/LORA),"half-life at 1 μM ([6]; human/mouse liver microsomes not distinguished, read-out: T½ values (microsomal stability)) [h]"
CN(C)CCOc1ncc(Nc2cc(C(F)(F)F)nc3cc(-c4ccc(F)cc4)nn23)cc1F [Compound 6],modest inhibitors,modest inhibitors,active in vivo,,,,,,,,,,,,,,
CN(C)CCOc1ncc(Nc2cc(-c3ccccc3)nc3cc(-c4ccc(F)cc4)nn23)cc1F [Compound 5],modest inhibitors,modest inhibitors,active in vivo,,,,,,,,,,,,,,
"Fc1ccc(-c2cnn3c(NCc4cc(N5CCCCC5)ccn4)cc(-c4ccccc4)nc23)cc1 [Compound 68, 3-(4-Fluorophenyl)-5-phenyl-N-((4-(piperidin-1-yl)pyridin-2-yl)methyl)pyrazolo[1,5-a]pyrimidin-7-amine]",,,,189 to 191,0.85,0.96,92,1,23,> 32,19,36,11,1.87,12,,
"COc1ccc(-c2cnn3c(NCc4ccccn4)cc(-c4ccccc4)nc23)cc1 [Compound 20, 3-(4-Methoxyphenyl)-5-phenyl-N-(pyridin-2-ylmethyl)pyrazolo[1,5-a]pyrimidin-7-amine]",,,,187 to 189,0.51,3.6,92,1,23,> 32,0,0,20,1.03,22,active,< 1.42
